Reference: ChEMBL document CHEMBL1155491, “Acylurea connected straight chain hydroxamates as novel histone deacetylase inhibitors: Synthesis, SAR, and in vivo antitumor activity” (Bioorg Med Chem Lett, 2010)
Converted amounts (≈) assume the structure as drawn. The source made the active and inactive calls. The rule behind the calls is not given here.

What was measured:
Histone deacetylase 1 [1] = target: T1, Histone deacetylase 1 (Homo sapiens, UniProt Q13547)
Histone deacetylase 1 [2] = target: T1, Histone deacetylase 1; remark: listed apart in the source
Histone deacetylase 1 [3] = target: T1, Histone deacetylase 1; assay: Inhibition of HDAC1 in human COLO205 cells assessed as induction of histone H3 acetylation at 10 uM by Western-immuno blotting; assay type: cell-based; settings: COLO 205
HCT-116 [4] = assay: Antiproliferative activity against human HCT116 cells; assay type: functional, cell-based
[5] = Half life in human liver microsome; assay type: ADME; settings: liver microsomes
PC-3 = assay: Antiproliferative activity against human PC3 cells; assay type: functional, cell-based
A2780 = assay: Antiproliferative activity against human A2780 cells; assay type: functional, cell-based
[6] = Solubility at pH 7; assay type: physicochemical; settings: buffer
Histone deacetylase 8 = target: T2, Histone deacetylase 8 (Homo sapiens, UniProt Q9BY41); assay: Inhibition of HDAC8
T2 sequence (Q9BY41 whole entry): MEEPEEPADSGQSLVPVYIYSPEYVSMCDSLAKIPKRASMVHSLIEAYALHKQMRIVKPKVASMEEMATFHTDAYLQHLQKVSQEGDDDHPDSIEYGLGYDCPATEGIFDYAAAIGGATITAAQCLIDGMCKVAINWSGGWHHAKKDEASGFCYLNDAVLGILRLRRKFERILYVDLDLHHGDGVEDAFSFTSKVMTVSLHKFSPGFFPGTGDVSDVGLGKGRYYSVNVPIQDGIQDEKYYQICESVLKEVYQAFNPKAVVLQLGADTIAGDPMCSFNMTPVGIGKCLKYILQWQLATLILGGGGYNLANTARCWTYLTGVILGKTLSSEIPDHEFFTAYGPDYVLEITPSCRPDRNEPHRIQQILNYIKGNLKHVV

[7] = Half life in mouse liver microsome; assay type: ADME; settings: liver microsomes
[8] = Elimination half life in mouse at 10 mg/kg, iv; assay type: ADME, organism-based; set-up: dose 10 mg/kg, route intravenous; settings: in vivo, read-out: beta t1/2 (converted)
[9] = Octanol-water distribution coefficient, log D of the compound; assay type: physicochemical
[10] = Volume of distribution at steady state in mouse at 10 mg/kg, iv; assay type: ADME, organism-based; set-up: dose 10 mg/kg, route intravenous; settings: in vivo, read-out: Vdss
[11] = Half life in rat liver microsome; assay type: ADME; settings: liver microsomes
[12] = Apparent permeability from apical to basolateral side of Caco-2 cells; assay type: ADME, cell-based; settings: human
[13] = Toxicity in human PC3 cells xenografted nude mouse; assay type: organism-based, PC-3; settings: in vivo
HCT-116 [14] = assay: Antitumor activity against human HCT116 cells xenografted in BALB/c mouse at 200 mg/kg, po after 21 days; assay type: functional, organism-based; set-up: dose 200 mg/kg
[15] = Oral bioavailability in mouse at 50 mg/kg, po; settings: in vivo
[16] = Clearance in mouse at 10 mg/kg, iv; assay type: ADME, organism-based; set-up: dose 10 mg/kg, route intravenous; settings: in vivo
[17] = Thermodynamic solubility at pH 7.4; assay type: physicochemical; settings: buffer, read-out: Therm_solubility

T1 sequence (Q13547 whole entry): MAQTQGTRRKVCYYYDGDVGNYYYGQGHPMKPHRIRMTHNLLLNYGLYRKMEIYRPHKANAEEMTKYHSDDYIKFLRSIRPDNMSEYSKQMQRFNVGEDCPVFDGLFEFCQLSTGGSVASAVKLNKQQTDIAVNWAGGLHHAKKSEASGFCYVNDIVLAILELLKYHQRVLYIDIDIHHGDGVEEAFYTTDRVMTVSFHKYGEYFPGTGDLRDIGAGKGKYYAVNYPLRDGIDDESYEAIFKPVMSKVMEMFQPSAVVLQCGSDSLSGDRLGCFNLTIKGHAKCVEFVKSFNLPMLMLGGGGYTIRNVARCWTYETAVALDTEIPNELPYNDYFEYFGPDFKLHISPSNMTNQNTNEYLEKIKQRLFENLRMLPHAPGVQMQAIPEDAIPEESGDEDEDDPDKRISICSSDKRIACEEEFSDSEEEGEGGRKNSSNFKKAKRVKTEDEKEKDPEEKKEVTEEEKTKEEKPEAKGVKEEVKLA

SMILES | IC50 (Histone deacetylase 1 [1]) | IC50 (Histone deacetylase 1 [2]) | other results
O=C(CCCCCNC(=O)NC(=O)c1ccc([N+](=O)[O-])cc1)NO | 2310 nM | 45 nM | Activity (Histone deacetylase 1 [3]): Active
O=C(CCCCCN(Cc1ccccc1)C(=O)NC(=O)c1ccccc1)NO | 3190 nM | 355 nM | Activity (Histone deacetylase 1 [3]): Active
O=C(CCCCCCNC(=O)NC(=O)c1ccccc1)NO | 2680 nM | 145 nM | Activity (Histone deacetylase 1 [3]): Active
CC(C)(C)c1ccc(C(=O)NC(=O)NCCCCCC(=O)NO)cc1 | 2350 nM | 24 nM | 
O=C(CCCCCNC(=O)NC(=O)c1c(Cl)cccc1Cl)NO | 2950 nM | 185 nM | 
O=C(CCCCCNC(=O)NC(=O)c1ccc2ccccc2c1)NO | 2150 nM | 6 nM | 
O=C(CCCCCNC(=O)NC(=O)c1ccc(NCCN2CCCC2)c([N+](=O)[O-])c1)NO | 2420 nM | 22 nM | IC50 (HCT-116 [4]): 1330 nM; half-life [5]: > 30 min; IC50 (PC-3): 920 nM; Activity (Histone deacetylase 1 [3]): Active; IC50 (A2780): 990 nM; solubility [6]: > 205 µM
CCN(CC)CCNc1ccc(C(=O)NC(=O)NCCCCCC(=O)NO)cc1[N+](=O)[O-] | 1700 nM | 20 nM | 
CCCCc1nc2cc(C(=O)NC(=O)NCCCCCC(=O)NO)ccc2n1CCN1CCCC1 | 2910 nM | 22 nM | IC50 (HCT-116 [4]): 3520 nM; half-life [5]: > 30 min; IC50 (PC-3): 1250 nM; Activity (Histone deacetylase 1 [3]): Active; IC50 (A2780): 1350 nM; solubility [6]: > 211 µM
CN(C)CCn1cnc2cc(C(=O)NC(=O)NCCCCCC(=O)NO)ccc21 | 19500 nM | 49 nM | 
O=C(CCCCCNC(=O)NC(=O)c1ccc(NS(=O)(=O)c2ccccc2)cc1)NO | > 100000 nM | 97 nM | 
O=C(CCCCCNC(=O)NC(=O)c1ccc2c(c1)ncn2CCc1ccccc1)NO | 9700 nM | 25 nM | 
O=C(CCCCCNC(=O)NC(=O)c1ccc(Cl)cc1)NO | 1600 nM | 26 nM | 
O=C(CCCNC(=O)NC(=O)c1ccccc1)NO |  | > 10000 nM | IC50 (Histone deacetylase 8): > 10000 nM
O=C(CCCCCCN(Cc1ccccc1)C(=O)NC(=O)c1ccccc1)NO |  | 1600 nM | 
CCN(CC)CCn1cnc2cc(C(=O)NC(=O)NCCCCCC(=O)NO)ccc21 | 5100 nM | 21 nM | 
O=C(CCCCCNC(=O)NC(=O)c1cccc(Br)c1)NO | 3150 nM | 60 nM | 
O=C(CCCCCNC(=O)NC(=O)c1ccc2c(c1)ncn2CCCc1ccccc1)NO | 3750 nM | 20 nM | 

SMILES | IC50 (Histone deacetylase 1 [1]) | IC50 (Histone deacetylase 1 [2]) | other results
O=C(CCCCCNC(=O)NC(=O)c1ccc(-c2cncnc2)cc1)NO | 10000 nM | 26 nM | half-life [5]: > 30 min; Activity (Histone deacetylase 1 [3]): Active; solubility [6]: 17 µM (≈ 6.31 µg/mL)
O=C(CCCCCNC(=O)NC(=O)c1ccc(F)cc1)NO | 2550 nM | 115 nM | 
O=C(CCCCCNC(=O)NC(=O)c1cccc([N+](=O)[O-])c1)NO | 2800 nM | 92 nM | 
O=C(CCCCCN(CCCc1ccccc1)C(=O)NC(=O)c1ccccc1)NO |  | 392 nM | IC50 (Histone deacetylase 8): 328 nM
O=C(CCCCCCC(=O)Nc1ccccc1)NO [VORINOSTAT] |  |  | half-life [7]: > 30 min; half-life [5]: > 60 min; half-life [8]: 22.8 min; logD [9]: 1.04; Vd [10]: 0.81 L/kg; half-life [11]: > 30 min; Papp A→B [12]: 1.7 ×10⁻⁶ cm/s; MTD [13]: 160 mg/kg; Activity (HCT-116 [14]): Active; bioavailability [15]: 8.3%; solubility [6]: > 250 µM; clearance [16]: 112 mL/min/kg; solubility thermodynamic [17]: 166 µg/mL (≈ 628 µM)
O=C(CCCCCNC(=O)NC(=O)c1ccc(I)cc1)NO | 870 nM | 8 nM | 
O=C(CCCCCNC(=O)NC(=O)c1ccc(N2CCOCC2)c([N+](=O)[O-])c1)NO | 12000 nM | 55 nM | 
CN(C)CC(C)(C)Cn1cnc2cc(C(=O)NC(=O)NCCCCCC(=O)NO)ccc21 | 3700 nM | 20 nM | 
O=C(CCCCCNC(=O)NC(=O)c1ccc(NC(=O)Cc2ccccc2)cc1)NO | 13200 nM | 44 nM | Activity (Histone deacetylase 1 [3]): Active; solubility [6]: 28 µM (≈ 11.9 µg/mL)
CN1CCN(c2ccc(C(=O)NC(=O)NCCCCCC(=O)NO)cc2[N+](=O)[O-])CC1 | 11500 nM | 43 nM | 
O=C(CCCCCCCNC(=O)NC(=O)c1ccccc1)NO | 8280 nM |  | IC50 (Histone deacetylase 8): 405 nM
O=C(CCCCCNC(=O)NC(=O)c1ccc(N2CCCCC2)c([N+](=O)[O-])c1)NO | 3250 nM | 46 nM | 
O=C(CCCCCCN(Cc1ccccn1)C(=O)NC(=O)c1ccccc1)NO | 9060 nM | 555 nM | 
O=C(CCCCCN(Cc1ccccn1)C(=O)NC(=O)c1ccccc1)NO | 14700 nM | 245 nM | 
O=C(CCCCCNC(=O)NC(=O)c1ccc2c(c1)nc(CCc1ccccc1)n2CCN1CCCC1)NO | 5380 nM | 34 nM | half-life [5]: 21 min; Activity (Histone deacetylase 1 [3]): Active; solubility [6]: > 250 µM
O=C(CCCCCNC(=O)NC(=O)c1ccc(N2CCCC2)c([N+](=O)[O-])c1)NO | 3450 nM | 20 nM | 
Nc1cc(C(=O)NC(=O)NCCCCCC(=O)NO)ccc1Cl | 1250 nM | 11 nM | 
